Assays:
Assay type in all cases: in vivo
Inbred C57J/L male mice = assay: Serum cholesterol of mice on lithogenic diet
Protocol: Inbred C57J/L male mice (Jackson Lab., Maine, USA) 4-6 weeks old weighing 20-25 gm were used. They were given their regular diet supplemented with (% w/w) Butter fat 15, Cholesterol 1, Cholic Acid 0.5, Corn Oil 2 (modified from Khanuia et al., Proc. Natnl. Acad. Sci. USA 1995; 92:7729-33) for 4-8 weeks (Lithogenic diet #2). Half of the group were given 3β-arachidylamido-7α,12α-dihydroxy-5β-cholan-24-oic acid at a dose of 150 mg/kg/day suspended in saline by intragastric gavage. The other half were similarly given an equal volume of saline. After 4-8 weeks the animals were anesthetized, heart blood was drawn for analysis. The liver and other organs were removed. Serum cholesterol levels were determined by autoanalyzer.
Another group of C57 J/L male inbred mice (Jackson Laboratories, Maine, USA) 4-6 weeks old weighing 20-25 gm. were given a lithogenic diet (No. 2) for 8 weeks and then a regular diet for another 8 weeks. During the 8 weeks of the regular diet part of the animals were given 3β-arachidylamido-7α,12α-dihydroxy-5β-cholan-24-oic acid by intragastric gavage at a dose of 150 mg/kg/day. After a total of 16 weeks the animals were anesthetized, heart blood was drawn for analysis. Liver and other organs were removed. Serum cholesterol levels were analyzed as above. A third group of animals were given a regular diet throughout the 16 weeks and then similarly analyzed.

Golden Syrian Hamsters = assay: Serum cholesterol of hamsters on lithogenic diet; settings: Lithogenic diet 1 + BAFAC II 150 mg/kg/day by gavage, 10 W
Protocol: Golden Syrian Hamsters-(Anilab, Rehovot, Israel) 4-6 weeks old weighing 90-110 gm were used. They were fed a lithogenic diet (No. 1) consisting of their regular diet supplemented with (w/w) cholesterol 1%, Palmitic Acid 1.2%, Corn Oil 2% (modified from Ayvad et al., Lipids, 1992; 27:993-998) for 10 weeks. Half of the animals were given in addition 3β-arachidylamido-7α,12α-dihydroxy-5β-cholan-24-oic acid at a dose of 150 mg/kg/day suspended in saline, by intragastric gavage. The control animals were similarly given an equal volume of saline. After ten weeks the animals were anesthetized, heart blood was drawn for analysis. The liver and other organs were removed. Serum cholesterol levels were determined by autoanalyzer.

[1] = tested on: Golden Syrian Male Hamsters; assay: Fasting blood glucose, hamsters on fatty liver diet (NIDDM model); settings: BAFAC 150 mg/kg/day by gavage, 3 weeks, vs saline
Protocol: The effects of BAFACs on fasting blood glucose were tested in 3 animal species: Hamsters, Rats and Mice. The animals were kept on regular or high fat diets (as specified). In each group half of the animals received a daily BAFAC dose (150 mg/kg) dispersed in 0.5 ml of saline by gavage. The other half received similarly, by gavage, an equal volume of saline only. All animals were kept on a 12 hr day/night cycle at 22° C. throughout the experiment. They had access to water ad libidum.
Golden Syrian male hamsters 4 weeks old (90-100 gm) were fed a fatty liver diet consisting of cholesterol (1%), palmitic acid (1.2%), butter (6%), lard (10%), and corn oil (2%) added (w/w) to their regular diet. Blood glucose was measured at sacrifice in the fasting state after 3 weeks of the trial. There were 5 control and 5 test animals.
The hamsters and rats on the high fat diets developed fatty liver (confirmed by chemical measurement of liver fat), a high fasting blood glucose, and represented models of NIDDM.
ICR male mice, 4 weeks old (approx. 20 gm) were fed a regular diet. Streptozotocin 200 mg/kg was injected i.p. on the first day of the experiment. (This induced damage to the islet cells of the pancreas and simulated IDDM). Fasting blood glucose was obtained from sacrificed animals after 16 days of the trial. There were 3 groups of 7 animals each. Controls—regular diet only. […]

human patients [2] = assay: Human study: change in weight; design: Change in Weight, Mean / Change in Weight, Median / Change in Weight, Max: unit not given here; settings: for Change in Weight, Max / Change in Weight, Mean / Change in Weight, Median / Change in Weight, Min: 3 months
Protocol: (§1) The effects of BAFACs on disorders associated with Fatty liver, insulin resistance and altered glucose metabolism were tested on 60 human patients. Experiments were subdivided to 2 dosage regimens: Aramchol 300 mg daily (high dose) and 100 mg daily (low dose) respectively for a total period time of 3 months. The Aramchol:placebo ratio is of 2:1 for the low dose arm, and 1:1 for the high dose arms.
(§2) The study period included a 3 month treatment period with Aramchol low dose, or Aramchol high dose, or placebo, and a one month follow-up period. Aramchol was given daily orally. During the treatment period, all patients attended periodic […] (at first month) and subsequently monthly study-center visits in order to assess safety and efficacy of the treatment.
The results are shown using two known in the art principle statistical evaluation on, Intention-To-Treat (ITT) and Per Protocol (PP) populations. The ITT principle asserts that the effect of a treatment policy can be best assessed by evaluation on the basis of the intention to treat a subject (i.e. the planned treatment regimen) rather than the actual treatment given. It has the consequence that subjects allocated to a treatment group should be followed up, assessed and analyzed as members of that group irrespective of their compliance to the planned course of treatment. […] Compliance covers such considerations as exposure to treatment, availability of measurements and absence of major protocol violations.

human patients [3] = assay: Human study: safety; settings: Aramchol at 300 and 100 mg/d oral, 3 months, vs placebo
Protocol: as §1, §2
No changes in adverse events or in vital signs were observed between the groups.

Q: How did the “Serum Cholesterol (mean + StD)” value (Inbred C57J/L male mice; Lithogenic diet 2 + BAFAC II 150 mg/kg/day by gavage, 4 W) turn out when `CCCCCCCCCCCCCCCCCCCC(=O)N[C@H]1CC[C@@]2(C)[C@@H](C1)C[C@@H](O)[C@@H]1[C@@H]2C[C@H](O)[C@]2(C)[C@@H]([C@H](C)CCC(=O)O)CC[C@@H]12` [Aramchol, 3β-arachidylamido-7α,12α-dihydroxy-5β-cholan-24-oic acid] was run?
A: Its value is 143 (19.8) mg %.

Q: What about the “Serum Cholesterol (mean + StD)” value (Inbred C57J/L male mice; Lithogenic diet 2 + BAFAC II 150 mg/kg/day by gavage, 6 W) of the same molecule?
A: Its value is 125 (10.8) mg %.

Q: What about the “Serum Cholesterol (mean + StD)” value (Inbred C57J/L male mice; Lithogenic diet 2 + BAFAC II 150 mg/kg/day by gavage, 8 W) of the same molecule?
A: Its value is 139 (0.7) mg %.

Q: And the “Serum Cholesterol (mean + StD)” value (Inbred C57J/L male mice; Lithogenic diet 2 for 8 W then regular diet 8 W with BAFAC II 150 mg/kg/day, total 16 W)?
A: Its value is 65 (6.8) mg %.

Q: And the “Serum Cholesterol (mean + StD)” value (Golden Syrian Hamsters)?
A: The value was 202 (59.6) mg %.

Q: What about the fasting blood glucose [1] of the same molecule?
A: The fasting blood glucose was “markedly reduced”.

Q: What about the “Change in Weight, Max” value (human patients [2]; Aramchol 100 mg/d oral, ITT) of the same molecule?
A: The value was 4.00.

Q: What about the “Change in Weight, Mean” value (human patients [2]; Aramchol 100 mg/d oral, ITT) of the same molecule?
A: Its value is 0.18.

Q: What about the “Change in Weight, Median” value (human patients [2]; Aramchol 100 mg/d oral, ITT) of the same molecule?
A: The value was 0.00.

Q: What about the “Change in Weight, Min” value (human patients [2]; Aramchol 100 mg/d oral, ITT) of the same molecule?
A: The value was −5.00.

Q: What about the “Change in Weight, Max” value (human patients [2]; Aramchol 100 mg/d oral, PP) of the same molecule?
A: The value was 4.00.

Q: And the “Change in Weight, Mean” value (human patients [2]; Aramchol 100 mg/d oral, PP)?
A: The value was 0.08.

Q: And the “Change in Weight, Median” value (human patients [2]; Aramchol 100 mg/d oral, PP)?
A: Its value is 0.00.

Q: And the “Change in Weight, Min” value (human patients [2]; Aramchol 100 mg/d oral, PP)?
A: The value was −5.00.

Q: And the “Change in Weight, Max” value (human patients [2]; Aramchol 300 mg/d oral, ITT)?
A: The value was 3.50.

Q: What about the “Change in Weight, Mean” value (human patients [2]; Aramchol 300 mg/d oral, ITT) of the same molecule?
A: Its value is −1.15.

Q: What about the “Change in Weight, Median” value (human patients [2]; Aramchol 300 mg/d oral, ITT) of the same molecule?
A: The value was −1.25.

Q: What about the “Change in Weight, Min” value (human patients [2]; Aramchol 300 mg/d oral, ITT) of the same molecule?
A: The value was −4.40.

Q: What about the “Change in Weight, Max” value (human patients [2]; Aramchol 300 mg/d oral, PP) of the same molecule?
A: Its value is 3.50.

Q: What about the “Change in Weight, Mean” value (human patients [2]; Aramchol 300 mg/d oral, PP) of the same molecule?
A: Its value is −1.15.

Q: What about the “Change in Weight, Median” value (human patients [2]; Aramchol 300 mg/d oral, PP) of the same molecule?
A: The value was −1.25.

Q: And the “Change in Weight, Min” value (human patients [2]; Aramchol 300 mg/d oral, PP)?
A: The value was −4.40.

Q: And the “body weight (in words)” value (human patients [2]; Aramchol 300 mg/d, tested subjects, Tables 9 and 10)?
A: The value was “reduces body weight”.

Q: And the “Safety (adverse events, vital signs)” value (human patients [3])?
A: Its value is “not associated with any safety concerns”.
